Read-outs that look alike come from different tables or passages of the source.
Key:
[1] = system: C-26; assay: Methylene blue assay of cell survival; assay type: cell-based, human
Source text: (§1) Several tumor cell lines in monolayers were used. A human ovarian carcinoma cell line (OV-1063), established at the Hadassah University Hospital, a human colon carcinoma cell line (C-26), a DOX-sensitive M-109S ([…]), and a DOX-resistant, M-109R ([…]). All cell lines were maintained in RPMI-1640 medium supplemented with 10% FCS, antibiotics, and glutamine. All culture medium components were purchased from Biological Industries (Beit-HaEmek, Israel). Both cell lines were maintained at 37° C. in a water-jacketed CO2 incubator.
(§2) a) Various ceramides (Cer) with different chain lengths: short (C2 Cer and C4 Cer), medium (C6 Cer and C8 Cer), and long (C16 Cer) were first dissolved in 100% ethanol to a concentration of 30 mM, added to a serum-containing medium and mixed immediately. The final ethanol concentration in the serum-containing culture medium ranged from 0.1-0.5% (depending on the type of ceramide (Cer)).
(§3) b) Various ceramides with different chain lengths: short C2 Cer, medium C6 Cer, and long C16 Cer were dissolved in ethanol:dodecane (98:2 v/v) to a concentration of 30 mM and added to serum-free medium and mixed. Final concentrations of the ethanol and dodecane in the culture medium containing 10% of FCS ranged from 0.098-0.49% and 0.002-0.01%, respectively, depending on the type of ceramide.
(§4) The cytotoxicity of the examined assemblies comprising ceramide was tested by the methylene blue ([…]) staining assay [Gorodetsky, R. et al. Int. J. Cancer. 75:635-642 (1998)]. A known number of exponentially growing cells in 200 μL of medium were plated in 96-microwell, flat-bottomed plates. For each of the variants tested, 4 wells were used. Following 24 hr of incubation in culture, 20 μL of different concentrations of the examined assemblies were added to each well containing untreated cells.
(§5) The following controls were used: Citrate buffer (5 mM, pH 7); Ethanol solution in medium RPMI 1640 (final concentration of 0.1%); A solution RPMI 1640 of ethanol:dodecane (98:2 […]) at a final concentration of 0.1% and 0.2%, respectively.
(§6) Cells were exposed to assemblies for 4, 24, 72 or 96 hr. At the end of assembly exposure, for a fixed time interval, the drug-treated cells, as well as parallel control cells, were washed, and the incubation continued in fresh medium until termination of the experiment. Following 72 hr or 96 hr of growth, cells were fixed by adding 50 μL of 2.5% glutaraldehyde to each well for 15 min. Fixed cells were rinsed 10 times with deionized water and once with borate buffer (0.1 M, pH 8.5), dried, and stained with MB (100 μL of 1% solution in 0.1 M borate buffer, pH 8.5) for 1 h at room temperature (r.t.). Stained cells were rinsed thoroughly with de-ionized water to remove any non-cell-bound dye and then dried. The MB bound to the fixed cells was extracted by incubation at 37° C. with 200 μL of 0.1 N HCl for 1 h, and the net optical density of the dye in each well was determined by a plate spectrophotometer (Labsystems Multyskan Bichromatic, Finland) at 620 nm.

[2] = system: OV-1063; assay: Methylene blue assay of cell survival; assay type: cell-based, human; details: Table 8B
Source text: as §1, §2, §3, §4, §5, §6

[3] = Partition in the two phases of the Dole system; assay type: physicochemical
[4] = Size distribution of ceramide dispersions by DLS; assay type: physicochemical
Procedure: The particle size distribution of all liposome dispersions prepared was determined at 25° C. by dynamic light-scattering (DLS) using the ALV-NIBS/HPPS ALV-Laser, Vertriebsgesellschaft GmbH, (Langen, Germany) instrument.
However, so far the biological activity of the ceramides was not evaluated in vivo in spite their potential beneficial activity due to difficulties in their delivery. As mentioned above, ceramides by themselves are difficult to be dispersed in serum-free medium. […] When a volume of ceramides (C2Cer, C6Cer, and C16Cer) in ethanol:dodecane (98:2 v/v) was diluted into 100 volumes of serum-free medium a milky translucent dispersion was formed.
However, when these ceramide dispersions were diluted further (final dilution 1:1000) in serum-containing medium, a 4-6 fold increase in particle size was observed. As a control, when the solvents ethanol:dodecane (98:2) were mixed by themselves with medium without ceramides, no particles were detected by DLS. Also, for comparison, when ceramide solutions in ethanol (without dodecane) were diluted 1:100 in serum-containing medium very large particles were observed by DLS (Table 11).

[5] = system: OV-1063 cells; assay: Apoptosis by chromatin morphology (Hoechst-33342, confocal microscopy); assay type: cell-based, human; details: for Apoptotic OV-1063 cells (% of total cell number), 16 hr: IC50 concentrations
Procedure: (§7) a) The morphology of chromatin was assessed by staining with Hoechst-33342 obtained from Calbiochem (La Jolla, Calif.), a molecule which when reside in the minor groove of the DNA strand enhance its fluorescence intensity and, therefore, it is preferentially stains dsDNA [Jouvet, P. Mol. Biol. Cell 11:1919-1932 (2000)]. Briefly, samples containing 5*10^5 cells were cultured on 6-well plates covered with a glass coverslip. After treatment of cells with IC50 of drugs, cells were washed with PBS and fixated with 4% formaldehyde. After that cells were stained with Hoechst-33342 (5 μg/ml) and washed. Thereafter, glass coverslip was placed on a glass slide and photographed using a CLMS.

[6] = system: C-26 cells; assay: as above; assay type: cell-based, human
Procedure: as §7

[7] = Table 8A, C-26 cells, free ceramide dispersions, read-out: IC50 (μM), 4 hr
[8] = Table 8A, C-26 cells, read-out: IC50 (μM), 24 hr
[9] = Table 8A, C-26 cells, read-out: IC50 (μM), 72 hr
[10] = Table 8B, read-out: IC50 (μM), 4 hr C-26
[11] = Table 8B, read-out: IC50 (μM), 24 hr C-26
[12] = Table 8B, read-out: IC50 (μM), 72 hr C-26
[13] = read-out: IC50 (μM), 4 hr OV-1063
[14] = read-out: IC50 (μM), 24 hr OV-1063
[15] = read-out: IC50 (μM), 72 hr OV-1063

| Compound | IC50 [1, 7] [µM] | IC50 [1, 8] [µM] | IC50 [1, 9] [µM] | IC50 [1, 10] [µM] | IC50 [1, 11] [µM] | IC50 [1, 12] [µM] | IC50 [2, 13] [µM] | IC50 [2, 14] [µM] | IC50 [2, 15] [µM] | Liposome formation (being a liposome forming lipid by itself) [3] | Size (nm), Ethanol dispersion in serum-containing medium (1:100) [4] [nm] | Size (nm), Ethanol:dodecane (98:2) dispersion in serum-containing medium (1:1000) [4] [nm] | Size (nm), Ethanol:dodecane (98:2) dispersion in serum-free medium (1:100) [4] [nm] | Apoptotic OV-1063 cells (% of total cell number), 24 hr [5] [%] | Apoptotic C-26 cells (% of total cell number), 24 hr [6] [%] | Apoptotic OV-1063 cells (% of total cell number), 16 hr [5] [%] | Apoptotic C-26 cells (% of total cell number), 16 hr [6] [%] |
| --- | --- | --- | --- | --- | --- | --- | --- | --- | --- | --- | --- | --- | --- | --- | --- | --- | --- |
| CCCCCCCCCCCCC/C=C/[C@@H](O)[C@H](CO)NC(=O)CCCCCCCCCCCCCCC [C16Cer, N-palmitoyl-D-erythro-sphingosine] | > 100 | > 100 | 80 | > 100 | > 100 | 80 | > 100 | > 100 | 90 | No | 4740 | 2824 | 790 | 17 | 9 | – | – |
| CCCCCCCCCCCCC/C=C/[C@@H](O)[C@H](CO)NC(C)=O [C2Cer, N-Acetyl-D-erythro-sphingosine] | > 60 | > 30 | 20 ± 1 | > 60 | > 30 | 20 ± 1 | > 80 | > 30 | 25 ± 1.9 | No | 6514 | 1400 | 330 | 60 | 14 | 48 | 7 |
| CCCCCCCCCCCCC/C=C/[C@@H](O)[C@H](CO)NC(=O)CCCCC [C6Cer, N-hexanoyl-D-erythro-sphingosine] | 11 ± 5 | 4.1 ± 1.6 | 2.9 ± 1.2 | 11 ± 5 | 4.1 ± 1.6 | 2.9 ± 1.2 | 8 ± 0.1 | 4.5 ± 0.7 | 2.3 ± 1 | No | 3780 | 2100 | 330 | 61 | 18 | 53 | 9 |

— patent US20060198882A1, “Stable liposomes or micelles comprising a sphinolipid and a peg-lipopolymer” (priority 2003, published 2006)
